Reference: PMC12459522, “Design and synthesis of N-substituted-2-butyl-4-chloro-1H-imidazole derivatives as potential ACE inhibitors: in vitro study, in-silico analysis, and a multifaceted CSD-supported crystallographic investigation” (RSC Advances, 2025)
Like-named read-outs stand apart in the source and are kept apart here.

Target: ACE (Ovis aries, UniProt A0ACI6QSL6)
Test: In vitro colorimetric ACE inhibition assay (HHL substrate, hippuric acid release, 410 nm)
Type: biochemical, sheep
Protocol: The ACE enzyme extract was preincubated with various concentrations of test compounds (4a–f) ranging from 250 nM to 25 μM, alongside the standard lisinopril (100–500 nM), for 10 minutes at 37 °C. The reaction was initiated by adding sodium borate buffer containing 0.3 M sodium chloride and 5 mM HHL, followed by a 30 minutes incubation at 37 °C. To terminate the reaction, 60 μL of 1 M HCl was added, which was subsequently followed by the addition of 120 μL of pyridine and 60 μL of benzene sulfonyl chloride for color development. The mixture was then cooled on ice for 5 minutes, and the resulting yellow color was measured spectrophotometrically at 410 nm. The reduction in HA concentration during the inhibition reaction, compared with that during the control reaction, was expressed as % inhibition, and the IC50 values were calculated via semilogarithmic plots. […] The IC50 values for the compounds and the standard lisinopril are presented in Table 1, and a bar graph comprising % inhibition is depicted in Fig. 2.
Sheep kidney acetone powder was prepared in the laboratory according to a modified protocol by Hector et al.[24] Fresh sheep kidney tissue was homogenized with prechilled acetone (1 : 3) and vacuum-filtered using a Buchner funnel. Re-extraction was performed until the solid residue turned colorless. This residue was air-dried and sifted to obtain a uniform powder, which was stored in an airtight container at 0–4 °C.
ACE was extracted from the prepared acetone powder as described by Jimsheena et al.[25] One gram of acetone powder was extracted via 10 mL of sodium borate buffer (0.05 M, pH 8.2) containing 0.3 M sodium chloride and 0.5% Triton X-100 at 4 °C for 18 hours. This extract was later centrifuged at 15 000g for 60 minutes at 4 °C. The supernatant was collected and dialyzed against the same buffer without Triton X-100 (3 L, the buffer was changed 3 times) for 24 hours. This extract was stored at −20 °C until further use. The specific activity was 0.8234 units per mg of protein.
ACE activity was calculated by measuring the release of hippuric acid (HA) from the substrate hippuryl-histidyl-leucine (HHL). One unit of ACE activity is defined as the amount of enzyme that releases 1 μmol of HA per minute at 37 °C and pH 8.2. The ACE enzyme extract was preincubated with different concentrations of the test compounds (250 nM to 25 μM) and a standard drug solution (lisinopril, 100–500 nM) for 10 minutes at 37 °C. The reaction was initiated by the addition of sodium borate buffer (0.05 M, pH 8.2) containing 0.3 M sodium chloride and 5 mM HHL. The mixture was incubated at 37 °C for 30 minutes, followed by the addition of 60 μL of 1 M HCl to stop the reaction. This was followed by the addition of 120 μL of pyridine and 60 μL of […] sulfonyl chloride (BSC) for color development. The mixture was mixed gently and cooled on ice for 5 minutes. The yellow color developed was measured spectrophotometrically at 410 nm.[25] The reduced HA concentration in the inhibition reaction compared with the control reaction is expressed as % inhibition, which was calculated as:% inhibition = 100 − (Atest/Acontrol) × 100,where Atest = absorbance of the test reaction and Acontrol = absorbance of the control reaction.

[1] = sheep kidney ACE extract, HHL substrate, 37 °C, pH 8.2, read-out: IC50 against the ACE

ACE, sequence (A0ACI6QSL6 entry or part of it): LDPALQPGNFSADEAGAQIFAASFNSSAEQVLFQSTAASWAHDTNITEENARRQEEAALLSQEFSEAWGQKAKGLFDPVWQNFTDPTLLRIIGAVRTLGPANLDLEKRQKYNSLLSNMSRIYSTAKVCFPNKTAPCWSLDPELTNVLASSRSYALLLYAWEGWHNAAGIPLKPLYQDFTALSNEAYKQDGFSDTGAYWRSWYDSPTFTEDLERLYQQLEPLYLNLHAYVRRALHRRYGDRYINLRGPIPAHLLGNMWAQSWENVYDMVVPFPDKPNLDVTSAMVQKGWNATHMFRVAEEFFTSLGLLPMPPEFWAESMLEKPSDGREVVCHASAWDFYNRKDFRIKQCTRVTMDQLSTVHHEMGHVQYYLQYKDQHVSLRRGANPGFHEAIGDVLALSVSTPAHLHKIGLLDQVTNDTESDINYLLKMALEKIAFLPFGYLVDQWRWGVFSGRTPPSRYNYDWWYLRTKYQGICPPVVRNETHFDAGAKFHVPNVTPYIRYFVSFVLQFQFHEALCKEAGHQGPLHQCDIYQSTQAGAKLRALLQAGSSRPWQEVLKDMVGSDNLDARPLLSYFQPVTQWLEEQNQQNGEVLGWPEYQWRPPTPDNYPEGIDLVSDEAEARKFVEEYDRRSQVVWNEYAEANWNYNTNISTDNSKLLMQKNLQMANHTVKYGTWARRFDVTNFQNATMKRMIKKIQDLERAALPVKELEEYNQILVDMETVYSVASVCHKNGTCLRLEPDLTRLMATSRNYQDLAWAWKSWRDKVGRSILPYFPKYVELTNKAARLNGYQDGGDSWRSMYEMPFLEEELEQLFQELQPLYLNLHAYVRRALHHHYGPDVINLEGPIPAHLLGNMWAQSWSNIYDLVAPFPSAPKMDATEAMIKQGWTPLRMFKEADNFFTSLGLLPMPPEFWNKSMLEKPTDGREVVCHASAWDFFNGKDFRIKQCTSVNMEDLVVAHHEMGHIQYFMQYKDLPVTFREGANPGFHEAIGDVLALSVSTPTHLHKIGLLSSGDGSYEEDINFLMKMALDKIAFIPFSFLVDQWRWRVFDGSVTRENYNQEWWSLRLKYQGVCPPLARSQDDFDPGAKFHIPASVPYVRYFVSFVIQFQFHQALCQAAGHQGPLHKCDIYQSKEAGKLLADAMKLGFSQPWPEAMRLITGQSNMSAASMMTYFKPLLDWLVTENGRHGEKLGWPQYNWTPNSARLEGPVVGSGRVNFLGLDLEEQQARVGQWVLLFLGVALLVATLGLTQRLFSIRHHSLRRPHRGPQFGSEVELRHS

Compound | IC50 [1] [nM] | IC50 [nM]
CCCCc1nc(Cl)c(CO)n1CC(O)c1ccc(Cl)cc1 (stereo not shown) [4e, 2-(2-Butyl-4-chloro-5-(hydroxymethyl)-1H-imidazol-1-yl)-1-(4-chlorophenyl)ethan-1-ol] | 4890 ± 68 | 
CCCCc1nc(Cl)c(CO)n1CC(O)c1ccc(F)cc1 (stereo not shown) [4f, 2-(2-Butyl-4-chloro-5-(hydroxymethyl)-1H-imidazol-1-yl)-1-(4-fluorophenyl)ethan-1-ol] | 7570 ± 85 | 
CCCCc1nc(Cl)c(CO)n1CC(O)c1ccc(C)cc1 (stereo not shown) [4c, 2-(2-Butyl-4-chloro-5-(hydroxymethyl)-1H-imidazol-1-yl)-1-(p-tolyl)ethan-1-ol] | 1560 ± 65 | 
2-(2-Butyl-4-chloro-5-(hydroxymethyl)-1H-imidazol-1-yl)-1-(naphthalen-1-yl)ethan-1-ol [4d] | 2120 ± 15 | 
CCCCc1nc(Cl)c(CO)n1CC(O)c1ccc([N+](=O)[O-])cc1 (stereo not shown) [4b, 2-(2-Butyl-4-chloro-5-(hydroxymethyl)-1H-imidazol-1-yl)-1-(4-nitrophenyl)ethan-1-ol] | 1310 ± 26 | 
CCCCc1nc(Cl)c(CO)n1CC(O)c1ccc(OC)cc1 (stereo not shown) [4a, 2-(2-Butyl-4-chloro-5-(hydroxymethyl)-1H-imidazol-1-yl)-1-(4-methoxyphenyl)ethan-1-ol] | 2470 ± 102 | 
NCCCC[C@H](N[C@@H](CCc1ccccc1)C(=O)O)C(=O)N1CCC[C@H]1C(=O)O [Lisinopril, reference compound] |  | 300 ± 135
